In patent publication US20120129872A1, “FUSED HETEROARYL INHIBITORS OF PRO-MATRIX METALLOPROTEINASE ACTIVATION” (priority 2010, published 2012):
Where a name gives a salt, the structure may show the parent alone.

What was measured:
[1] = biological target: T1, full-length proMMP9(1-707) (SEQ ID NO:1), activation by catalytic MMP3 (Homo sapiens, UniProt P14780, R574P); assay: proMMP9/MMP3 P126 Activation Assay; assay type: biochemical
T1 construct: made in house; host or cells: HEK293 (transient, secreted)
Protocol: proMMP9/MMP3 P126 Activation Assay
The reaction volume was 50 μL. […] Reactivity of residual MMP3 towards P-126 substrate was minimal under these conditions.

[2] = biological target: T2, proMMP13(1-268) (SEQ ID NO:7) (Homo sapiens, UniProt P45452); assay: ThermoFluor binding assay with proMMP13(1-268)
T2 construct: 6×-histidine tag (C); made in house; host or cells: HEK293 (transient, secreted)
Protocol: (§1) The ThermoFluor® (TF) assay is a 384-well plate-based binding assay that measures thermal stability of proteins (Biomol Screen 2001, 6, 429-40; Biochemistry 2005, 44, 5258-66). The experiments were carried out using instruments available from Johnson & Johnson Pharmaceutical Research & Development, LLC. TF dye used in all experiments was […] (1,8-ANS) (Invitrogen: A-47).
(§2) Compounds were arranged in a pre-dispensed plate (Greiner Bio-one: 781280), wherein compounds were serially diluted in 100% DMSO across 11 columns within a series. Columns 12 and 24 were used as DMSO reference and contained no compound. For multiple compound concentration-response experiments, the compound aliquots ([…]) were robotically predispensed directly into black 384-well polypropylene PCR microplates (Abgene: TF-0384/k) using a Cartesian Hummingbird liquid handler (DigiLab, Holliston, Mass.). Following compound dispense, protein and dye solutions were added to achieve the final assay volume of 3 μL. The assay solutions were overlayed with 1 μL of silicone oil (Fluka, type DC 200: 85411) to prevent evaporation.
(§3) Assay plates were robotically loaded onto a thermostatically controlled PCR-type thermal block and then heated from 40 to 90° C. at a ramp-rate of 1° C./min for all experiments. Fluorescence was measured by continuous illumination with UV light (Hamamatsu LC6) supplied via fiber optics and filtered through a band-pass filter (380-400 nm; >60D cutoff). Fluorescence emission of the entire 384-well plate was detected by measuring light intensity using a CCD camera (Sensys, Roper Scientific) filtered to detect 500±25 nm, resulting in simultaneous and independent readings of all 384 wells. A single image with 20-sec exposure time was collected at each temperature, and the sum of the pixel intensity in a given area of the assay plate was recorded vs temperature and fit to standard equations to yield the Tm (J Biomol Screen 2001, 6, 429-40).
(§4) Thermodynamic parameters necessary for fitting compound binding for each proMMP were estimated by differential scanning calorimetry (DSC) and from ThermoFluor® data. The heat capacity of unfolding for each protein was estimated from the molecular weight and from ThermoFluor® dosing data.
ThermoFluor® with proMMP13(1-268) (SEQ ID NO: 7)
The proMMP13(1-268) (SEQ ID NO:7) protein sample preparations included a desalting buffer exchange step via a PD-10 gravity column (GE Healthcare). The desalting buffer exchange was performed prior to diluting the protein to the final assay concentration of 3.5 μM. The concentration of proMMP13(1-268) (SEQ ID NO:7) was estimated spectrophotometrically based on a calculated extinction coefficient of ε280=37000 M^−1 cm^−1, a calculated molecular weight of 30.8 kDa, and calculated pI of 5.33. ThermoFluor® reference conditions were defined as follows: 100 μg/mL proMMP13(1-268) (SEQ ID NO:7), 25 μM 1,8-ANS, pH 7.0 Buffer (50 mM HEPES pH 7.0, 100 mM NaCl, 0.001% Tween-20, 2.5 mM MgCl2, 300 μM CaCl2). The thermodynamic parameters for proMMP13(1-268) (SEQ ID NO:7) are as follows: Tm (° C.)=67 (+/−0.1), ΔUH(Tm) (cal mol^−1)=107000(+/−5000), ΔUS(Tm) (cal mol^−1 K^−1)=318, ΔUCp (cal mol^−1 K^−1)=2600.

[3] = biological target: T3, proMMP9(67-444;ΔFnII) (SEQ ID NO:5) (Homo sapiens, UniProt P14780, DEL216-390); assay: ThermoFluor binding assay with proMMP9(67-444;ΔFnII)
T3 construct: start methionine (N); made in house; host or cells: E. coli BL21(DE3) RIL
T3 sequence (P14780 with tags, fused parts or gaps DEL216-390): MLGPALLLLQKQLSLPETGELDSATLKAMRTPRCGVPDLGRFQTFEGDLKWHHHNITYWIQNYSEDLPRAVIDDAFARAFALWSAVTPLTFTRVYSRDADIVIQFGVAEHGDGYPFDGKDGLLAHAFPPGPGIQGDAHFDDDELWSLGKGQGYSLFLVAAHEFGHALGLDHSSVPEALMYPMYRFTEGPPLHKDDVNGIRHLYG
Protocol: as §1, §2, §3, §4
ThermoFluor® with proMMP9(67-444;ΔFnII (SEQ ID NO:5)
The protein sample preparations had to include a desalting buffer exchange step via a PD-10 gravity column (GE Healthcare). The desalting buffer exchange was performed prior to diluting the protein to the final assay concentration of 3.5 μM proMMP9(67-444;ΔFnII) (SEQ ID NO:5). The concentration of proMMP9(67-444;ΔFnII) (SEQ ID NO:5) was determined spectrophotometrically based on a calculated extinction coefficient of ε280=33900 M^−1 cm^−1, a calculated molecular weight of 22.6 kDa, and calculated pI of 5.20. ThermoFluor® reference conditions were defined as follows: 80 μg/mL (3.5 μM) proMMP9(67-444;ΔFnII) (SEQ ID NO:5), 50 μM 1,8-ANS, pH 7.0 Buffer (50 mM HEPES pH 7.0, 100 mM NaCl, 0.001% Tween-20, 2.5 mM MgCl2, 300 μM CaCl2). The thermodynamic parameters for proMMP9(67-444;ΔFnII) (SEQ ID NO:5) are as follows: Tm (° C.)=63 (+/−0.1), ΔUH(Tm) (cal mol^−1)=105000(+/−5000), ΔUS(Tm) (cal mol^−1 K^−1)=450, ΔuCp (cal mol^−1 K^−1)=2000.

[4] = biological target: T4, proMMP9(20-445;ΔFnII) (SEQ ID NO:6) (Homo sapiens, UniProt P14780, DEL216-390); assay: ThermoFluor binding assay with proMMP9(20-445;ΔFnII)
T4 construct: start methionine (N); made in house; host or cells: E. coli BL21(DE3) RIL
T4 sequence (P14780 with tags, fused parts or gaps DEL216-390): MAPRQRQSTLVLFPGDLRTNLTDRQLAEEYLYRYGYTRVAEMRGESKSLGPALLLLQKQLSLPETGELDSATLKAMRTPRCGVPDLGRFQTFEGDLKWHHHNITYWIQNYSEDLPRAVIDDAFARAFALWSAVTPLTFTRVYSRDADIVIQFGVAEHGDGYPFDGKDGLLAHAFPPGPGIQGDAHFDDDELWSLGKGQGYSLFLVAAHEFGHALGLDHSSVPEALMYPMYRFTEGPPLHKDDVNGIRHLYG
Protocol: as §1, §2, §3, §4
ThermoFluor® with proMMP9(20-445;ΔFnII (SEQ ID NO:6)
The protein sample preparations included a desalting buffer exchange step via a PD-10 gravity column (GE Healthcare). The desalting buffer exchange was performed prior to diluting the protein to the final assay concentration of 2.8 μM proMMP9(20-445;ΔFnII) (SEQ ID NO:6). The concentration of proMMP9(20-445;ΔFnII) (SEQ ID NO:6) was determined spectrophotometrically based on a calculated extinction coefficient of ε280=39880 M^−1 cm^−1, a calculated molecular weight of 28.2 kDa, and calculated pI of 5.5. ThermoFluor® reference conditions were define as follows: 80 μg/mL (2.8 μM) proMMP9(20-445;ΔFnII) (SEQ ID NO:6), 50 μM 1,8-ANS, pH 7.0 Buffer (50 mM HEPES pH 7.0, 100 mM NaCl, 0.001% Tween-20, 2.5 mM MgCl2, 300 μM CaCl2). The thermodynamic parameters for proMMP9(20-445;ΔFnII) (SEQ ID NO:6) are as follows: Tm (° C.)=72 (+/−0.1), ΔUH(Tm) (cal mol^−1)=160000(+/−5000), ΔUS(Tm) (cal mol^−1 K^−1)=434, ΔUCp (cal mol^−1 K^−1)=2400.

T1 sequence (P14780 20-707 R574P): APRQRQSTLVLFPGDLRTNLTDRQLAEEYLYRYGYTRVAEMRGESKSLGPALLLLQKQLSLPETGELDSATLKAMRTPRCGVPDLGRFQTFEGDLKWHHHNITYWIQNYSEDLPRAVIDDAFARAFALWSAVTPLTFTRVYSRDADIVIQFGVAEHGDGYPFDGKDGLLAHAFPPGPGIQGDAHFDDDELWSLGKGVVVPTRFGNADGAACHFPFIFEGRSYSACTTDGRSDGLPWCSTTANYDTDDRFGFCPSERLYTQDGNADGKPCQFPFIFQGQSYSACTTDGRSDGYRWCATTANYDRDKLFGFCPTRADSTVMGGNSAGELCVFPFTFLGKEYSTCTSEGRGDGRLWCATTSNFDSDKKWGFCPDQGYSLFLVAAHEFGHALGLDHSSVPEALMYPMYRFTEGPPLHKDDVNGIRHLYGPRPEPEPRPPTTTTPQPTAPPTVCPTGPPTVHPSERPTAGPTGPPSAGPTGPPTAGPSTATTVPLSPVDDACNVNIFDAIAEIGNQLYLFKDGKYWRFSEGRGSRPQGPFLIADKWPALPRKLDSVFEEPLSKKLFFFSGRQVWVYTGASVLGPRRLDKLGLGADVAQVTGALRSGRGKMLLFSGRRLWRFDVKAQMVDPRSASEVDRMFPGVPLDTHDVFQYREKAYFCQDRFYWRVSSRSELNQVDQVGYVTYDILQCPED

Compound | IC50 [1] | Kd [2] | Kd [3] | Kd [4]
Cc1ccn2c(-c3csc(Nc4cc(C(N)=O)ccc4OC(C)C)n3)c(C)nc2c1 [Example 7, 3-[4-(2,7-Dimethyl-imidazo[1,2-a]pyridin-3-yl)-thiazol-2-ylamino]-4-isopropoxy-benzamide] | 1800 nM | 1200 nM | 9600 nM | 1500 nM
Cc1c(-c2csc(Nc3cc(C(N)=O)ccc3OC(C)C)n2)sc2ccccc12 [Example 3, 4-Isopropoxy-3-[4-(3-methyl-benzo[b]thiophen-2-yl)-thiazol-2-ylamino]-benzamide•HBr] | 2500 nM | 1900 nM | 750 nM | 1200 nM
Cc1nc2ccc(Cl)cn2c1-c1csc(Nc2cc(C(N)=O)ccc2OC(C)C)n1 [Example 6, 3-[4-(6-Chloro-2-methyl-imidazo[1,2-a]pyridin-3-yl)-thiazol-2-ylamino]-4-isopropoxy-benzamide] | 640 nM | 1100 nM | 17000 nM | 490 nM
COc1ccc(S(N)(=O)=O)cc1Nc1nc(-c2ccc3c(c2)ncn3C)cs1 [Example 11, 4-Methoxy-3-[4-(1-methyl-1H-benzoimidazol-5-yl)-thiazol-2-ylamino]-benzenesulfonamide] | 860 nM | – | 11000 nM | 4800 nM
CC(C)Cc1ccc(C(N)=O)cc1Nc1nc(-c2ccc3c(c2)ncn3C)cs1 [Example 2, 4-Isobutyl-3-[4-(1-methyl-1H-benzoimidazol-5-yl)-thiazol-2-ylamino]-benzamide•TFA] | ~3000 nM | – | 6000 nM | 690 nM
Cn1cnc2cc(-c3csc(Nc4cc(S(N)(=O)=O)ccc4OC(F)(F)F)n3)ccc21 [Example 12, 3-[4-(1-Methyl-1H-benzoimidazol-5-yl)-thiazol-2-ylamino]-4-trifluoromethoxy-benzenesulfonamide] | 860 nM | – | 5300 nM | 750 nM
CCOc1ccc(S(N)(=O)=O)cc1Nc1nc(-n2c(C)nc3ccccc32)cs1 [Example 5, 4-Ethoxy-3-[4-(2-methyl-benzoimidazol-1-yl)-thiazol-2-ylamino]-benzenesulfonamide] | 13800 nM | 4800 nM | 16000 nM | 9700 nM
CC(C)Oc1ccc(S(N)(=O)=O)cc1Nc1nc(-c2ccc3occc3c2)cs1 [Example 24, 3-(4-Benzofuran-5-yl-thiazol-2-ylamino)-4-isopropoxy-benzenesulfonamide•TFA] | 3400 nM | – | 670 nM | 240 nM
CC(C)Oc1ccc(S(N)(=O)=O)cc1Nc1nc(-c2ccc3c(cnn3C)c2)cs1 [Example 15, 4-Isopropoxy-3-[4-(1-methyl-1H-indazol-5-yl)-thiazol-2-ylamino]-benzenesulfonamide•TFA] | 550 nM | – | 280 nM | 110 nM

Stronger by IC50 [1], values ahead:

IC50 [1] | Kd [2] | Kd [3] | Kd [4] | Compound
470 nM | – | 1000 nM | 210 nM | CCCn1cnc2cc(-c3csc(Nc4cc(S(N)(=O)=O)ccc4OC(C)C)n3)ccc21 [Example 26]
320 nM | – | 1400 nM | 91 nM | CC(C)Oc1ccc(S(N)(=O)=O)cc1Nc1nc(-c2ccc3[nH]cnc3c2)cs1 [Example 21, 3-[4-(1H-Benzoimidazol-5-yl)-thiazol-2-ylamino]-4-isopropoxy-benzenesulfonamide•TFA]
240 nM | – | 1600 nM | 780 nM | CCn1cnc2cc(-c3csc(Nc4cc(S(N)(=O)=O)ccc4OC(C)C)n3)ccc21 [Example 25, 3-[4-(1-Ethyl-1H-benzoimidazol-5-yl)-thiazol-2-ylamino]-4-isopropoxy-benzenesulfonamide•TFA]
150 nM | – | 660 nM | 100 nM | CC(C)Oc1ccc(S(N)(=O)=O)cc1Nc1nc(-c2ccc3c(c2)nc(CO)n3C)cs1 [Example 29]
360 nM | – | 440 nM | 140 nM | Cc1nc2cc(-c3csc(Nc4cc(S(N)(=O)=O)ccc4OC(C)C)n3)ccc2[nH]1 [Example 18, 4-Isopropoxy-3-[4-(2-methyl-1H-benzoimidazol-5-yl)-thiazol-2-ylamino]-benzenesulfonamide•TFA]
460 nM | – | 830 nM | 170 nM | CCCn1cnc2ccc(-c3csc(Nc4cc(S(N)(=O)=O)ccc4OC(C)C)n3)cc21 [Example 19, 4-Isopropoxy-3-[4-(3-propyl-3H-benzoimidazol-5-yl)-thiazol-2-ylamino]-benzenesulfonamide•TFA]
250 nM | – | 470 nM | 120 nM | CCn1cnc2ccc(-c3csc(Nc4cc(S(N)(=O)=O)ccc4OC(C)C)n3)cc21 [Example 27, 3-[4-(3-Ethyl-3H-benzoimidazol-5-yl)-thiazol-2-ylamino]-4-isopropoxy-benzenesulfonamide•TFA]
